Laboratory results from patent US20250059171A1 (Hoffmann-La Roche Inc., priority 2021, published 2025).

What was measured:
SARS-CoV-2 3CLpro = SARS-CoV-2 3CLpro (Severe acute respiratory syndrome coronavirus 2, UniProt P0DTD1); assay: biochemical
HCoV-229E 3CLpro = HCoV-229E 3CLpro (Human coronavirus 229E, UniProt P0C6X1); assay: HCoV-229E 3CLpro inhibition assay (FRET); assay type: biochemical
MERS-CoV 3CLpro = MERS-CoV 3CLpro (Middle East respiratory syndrome-related coronavirus, UniProt K9N7C7); assay: biochemical
SARS-CoV 3CLpro = SARS-CoV 3CLpro (Severe acute respiratory syndrome coronavirus, UniProt P0C6X7); assay: biochemical

Chain of HCoV-229E 3CLpro (P0C6X1 2966-3267): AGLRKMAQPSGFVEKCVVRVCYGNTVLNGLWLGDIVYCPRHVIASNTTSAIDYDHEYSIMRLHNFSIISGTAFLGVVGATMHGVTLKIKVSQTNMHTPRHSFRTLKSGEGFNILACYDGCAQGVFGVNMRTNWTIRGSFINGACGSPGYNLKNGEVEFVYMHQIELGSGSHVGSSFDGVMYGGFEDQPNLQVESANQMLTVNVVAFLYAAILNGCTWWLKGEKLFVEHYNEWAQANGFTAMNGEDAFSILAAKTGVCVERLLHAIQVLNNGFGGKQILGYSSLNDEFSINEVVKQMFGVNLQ
Chain of MERS-CoV 3CLpro (K9N7C7 3248-3553): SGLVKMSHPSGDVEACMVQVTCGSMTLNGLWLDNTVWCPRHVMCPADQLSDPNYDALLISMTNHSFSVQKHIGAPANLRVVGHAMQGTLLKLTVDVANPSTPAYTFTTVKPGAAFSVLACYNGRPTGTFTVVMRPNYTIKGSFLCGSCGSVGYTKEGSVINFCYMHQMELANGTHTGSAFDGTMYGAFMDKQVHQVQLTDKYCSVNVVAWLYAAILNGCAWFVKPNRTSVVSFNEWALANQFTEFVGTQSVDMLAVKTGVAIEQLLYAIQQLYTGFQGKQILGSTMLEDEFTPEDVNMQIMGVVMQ

What does the source list for `CC[C@@H](C)[C@H](NC(=O)C1CC1(F)F)C(=O)N1C[C@H]2[C@@H]([C@H]1C(=O)NN(C[C@@H]1CCNC1=O)C(=O)[C@H](F)Cl)C2(C)C` (mixture of isomers) [Example 113, Rac-2,2-difluoro-N-[(1S,2R)-2-methyl-1-[(1R,2S,5S)-6,6-dimethyl-2-[[[(2R)-2-chloro-2-fluoro-acetyl]-[[(3S)-2-oxopyrrolidin-3-yl]methyl]amino]carbamoyl]-3-azabicyclo[3.1.0]hexane-3-carbonyl]butyl]cyclopropanecarboxamide]?
IC50 (SARS-CoV-2 3CLpro): 10 nM; IC50 (HCoV-229E 3CLpro): 23 nM; IC50 (MERS-CoV 3CLpro): 79 nM; IC50 (SARS-CoV 3CLpro): 15 nM

`CC(C)(C)[C@H](NC(=O)C(F)(F)F)C(=O)N1C[C@H](C(F)(F)F)C[C@H]1C(=O)NN(C[C@@H]1CCNC1=O)C(=O)[C@H](F)Cl` [Example 23, N-[(1S)-1-[(2S,4R)-2-[[[(2R)-2-chloro-2-fluoro-acetyl]-[[(3S)-2-oxopyrrolidin-3-yl]methyl]amino]carbamoyl]-4-(trifluoromethyl)pyrrolidine-1-carbonyl]-2,2-dimethyl-propyl]-2,2,2-trifluoro-acetamide] was tested. Which IC50 (SARS-CoV-2 3CLpro) did it give?
The IC50 was 9 nM.

And the IC50 (HCoV-229E 3CLpro)?
The IC50 was 21 nM.

What about the IC50 (MERS-CoV 3CLpro) of the same compound?
The IC50 was 65 nM.

And the IC50 (SARS-CoV 3CLpro)?
Its IC50 is 11 nM.

`CCC(C)(C)[C@H](NC(=O)[C@@H]1CC1(F)F)C(=O)N1C[C@@H]2CCC[C@@H]2[C@H]1C(=O)NN(C[C@@H]1CCNC1=O)C(=O)[C@@H](F)Cl` [Example 152, (1S)—N-[(1S)-1-[(3S,3aS,6aR)-3-[[[(2S)-2-chloro-2-fluoro-acetyl]-[[(3S)-2-oxopyrrolidin-3-yl]methyl]amino]carbamoyl]-3,3a,4,5,6,6a-hexahydro-1H-cyclopenta[c]pyrrole-2-carbonyl]-2,2-dimethyl-butyl]-2,2-difluoro-cyclopropanecarboxamide] was tested. Which IC50 (SARS-CoV-2 3CLpro) did it give?
Its IC50 is 15 nM.

What about the IC50 (HCoV-229E 3CLpro) of the same compound?
The IC50 was 28 nM.

What about the IC50 (MERS-CoV 3CLpro) of the same compound?
Its IC50 is 99 nM.

And the IC50 (SARS-CoV 3CLpro)?
The IC50 was 20 nM.

For `CCC(C)(C)[C@H](NC(=O)C(F)F)C(=O)N1C[C@@H]2CCC[C@@H]2[C@H]1C(=O)NN(C[C@@H]1CCCNC1=O)C(=O)[C@H](F)Cl` [Example 175, N-[(1S)-1-[(3S,3aS,6aR)-3-[[[(2R)-2-chloro-2-fluoro-acetyl]-[[(3S)-2-oxo-3-piperidyl]methyl]amino]carbamoyl]-3,3a,4,5,6,6a-hexahydro-1H-cyclopenta[c]pyrrole-2-carbonyl]-2,2-dimethyl-butyl]-2,2-difluoro-acetamide], which IC50 (SARS-CoV-2 3CLpro) is on record?
Its IC50 is 10 nM.

And the IC50 (HCoV-229E 3CLpro)?
Its IC50 is 37 nM.

And the IC50 (MERS-CoV 3CLpro)?
The IC50 was 105 nM.

What about the IC50 (SARS-CoV 3CLpro) of the same compound?
The IC50 was 15 nM.

Which IC50 (SARS-CoV-2 3CLpro) does the source give for `CC[C@H](C)[C@H](NC(=O)C1CC1(F)F)C(=O)N1C[C@@H]2CCC[C@@H]2[C@H]1C(=O)NN(C[C@@H]1CCNC1=O)C(=O)[C@H](F)Cl` (mixture of isomers) [Example 41, Rac-2,2-difluoro-N-[(1S,2S)-2-methyl-1-[(3S,3aS,6aR)-3-[[[(2R)-2-chloro-2-fluoro-acetyl]-[[(3S)-2-oxopyrrolidin-3-yl]methyl]amino]carbamoyl]-3,3a,4,5,6,6a-hexahydro-1H-cyclopenta[c]pyrrole-2-carbonyl]butyl]cyclopropanecarboxamide] here?
Its IC50 is 7 nM.

What about the IC50 (HCoV-229E 3CLpro) of the same compound?
Its IC50 is 68 nM.

What about the IC50 (MERS-CoV 3CLpro) of the same compound?
Its IC50 is 221 nM.

And the IC50 (SARS-CoV 3CLpro)?
Its IC50 is 33 nM.

How did the IC50 (SARS-CoV-2 3CLpro) turn out when `CC(C)(C)[C@H](NC(=O)[C@H]1CC1(F)F)C(=O)N1C[C@H]2[C@@H]([C@H]1C(=O)NN(C[C@@H]1CCNC1=O)C(=O)[C@@H](F)Cl)C2(C)C` [Example 96, (1R)—N-[(1S)-1-[(1R,2S,5S)-2-[[[(2S)-2-chloro-2-fluoro-acetyl]-[[(3S)-2-oxopyrrolidin-3-yl]methyl]amino]carbamoyl]-6,6-dimethyl-3-azabicyclo[3.1.0]hexane-3-carbonyl]-2,2-dimethyl-propyl]-2,2-difluoro-cyclopropanecarboxamide] was run?
Its IC50 is 11 nM.

And the IC50 (HCoV-229E 3CLpro)?
Its IC50 is 25 nM.

And the IC50 (MERS-CoV 3CLpro)?
Its IC50 is 63 nM.

What about the IC50 (SARS-CoV 3CLpro) of the same compound?
The IC50 was 14 nM.

Which results are given for `CC(C)(C)[C@H](NC(=O)C(F)(F)F)C(=O)N1CCC(C)(C)[C@@H]1C(=O)NN(C[C@@H]1CCNC1=O)C(=O)[C@H](F)Cl` [Example 155b, N-[(1S)-1-[(2R)-2-[[[(2R)-2-chloro-2-fluoro-acetyl]-[[(3S)-2-oxopyrrolidin-3-yl]methyl]amino]carbamoyl]-3,3-dimethyl-pyrrolidine-1-carbonyl]-2,2-dimethyl-propyl]-2,2,2-trifluoro-acetamide]?
IC50 (SARS-CoV-2 3CLpro): 1570 nM; IC50 (HCoV-229E 3CLpro): > 10000 nM; IC50 (MERS-CoV 3CLpro): > 10000 nM; IC50 (SARS-CoV 3CLpro): 2440 nM

What does the source list for `CC(C)C(=O)N[C@H](C(=O)N1CC2(CC2)C[C@H]1C(=O)NN(C[C@@H]1CCNC1=O)C(=O)[C@H](F)Cl)C(C)(C)C` [Example 25, N-[(1S)-1-[(6S)-6-[[[(2R)-2-chloro-2-fluoro-acetyl]-[[(3S)-2-oxopyrrolidin-3-yl]methyl]amino]carbamoyl]-5-azaspiro[2.4]heptane-5-carbonyl]-2,2-dimethyl-propyl]-2-methyl-propanamide]?
IC50 (SARS-CoV-2 3CLpro): 15 nM; IC50 (HCoV-229E 3CLpro): 127 nM; IC50 (MERS-CoV 3CLpro): 408 nM; IC50 (SARS-CoV 3CLpro): 27 nM

Which IC50 (SARS-CoV-2 3CLpro) does the source give for `CC[C@H](C)[C@H](NC(=O)[C@H](F)Cl)C(=O)N1C[C@H]2[C@@H]([C@H]1C(=O)NN(C[C@@H]1CCCNC1=O)C(=O)[C@H](F)Cl)C2(C)C` [Example 188, (2R)-2-chloro-N-[(1S,2S)-1-[(1R,2S,5S)-2-[[[(2R)-2-chloro-2-fluoro-acetyl]-[[(3S)-2-oxo-3-piperidyl]methyl]amino]carbamoyl]-6,6-dimethyl-3-azabicyclo[3.1.0]hexane-3-carbonyl]-2-methyl-butyl]-2-fluoro-acetamide] here?
The IC50 was 8 nM.

And the IC50 (HCoV-229E 3CLpro)?
Its IC50 is 26 nM.

What about the IC50 (MERS-CoV 3CLpro) of the same compound?
Its IC50 is 68 nM.

And the IC50 (SARS-CoV 3CLpro)?
Its IC50 is 12 nM.

What does the source list for `CC[C@H](C)[C@H](NC(=O)C1(F)CC1)C(=O)N1C[C@H](C(F)(F)F)C[C@H]1C(=O)NN(C[C@@H]1CCNC1=O)C(=O)[C@H](F)Cl` [Example 160, N-[(1S,2S)-1-[(2S,4R)-2-[[[(2R)-2-chloro-2-fluoro-acetyl]-[[(3S)-2-oxopyrrolidin-3-yl]methyl]amino]carbamoyl]-4-(trifluoromethyl)pyrrolidine-1-carbonyl]-2-methyl-butyl]-1-fluoro-cyclopropanecarboxamide]?
IC50 (SARS-CoV-2 3CLpro): 13 nM; IC50 (HCoV-229E 3CLpro): 24 nM; IC50 (MERS-CoV 3CLpro): 105 nM; IC50 (SARS-CoV 3CLpro): 19 nM

Which IC50 (SARS-CoV-2 3CLpro) does the source give for `CCC(CC)[C@H](NC(=O)C(F)F)C(=O)N1C[C@H]2[C@@H]([C@H]1C(=O)NN(C[C@@H]1CCNC1=O)C(=O)[C@H](F)Cl)C2(C)C` [Example 131, N-[(1S)-1-[(1R,2S,5S)-2-[[[(2R)-2-chloro-2-fluoro-acetyl]-[[(3S)-2-oxopyrrolidin-3-yl]methyl]amino]carbamoyl]-6,6-dimethyl-3-azabicyclo[3.1.0]hexane-3-carbonyl]-2-ethyl-butyl]-2,2-difluoro-acetamide] here?
Its IC50 is 10 nM.

And the IC50 (HCoV-229E 3CLpro)?
The IC50 was 26 nM.

What about the IC50 (MERS-CoV 3CLpro) of the same compound?
The IC50 was 158 nM.

And the IC50 (SARS-CoV 3CLpro)?
Its IC50 is 14 nM.

How did the IC50 (SARS-CoV-2 3CLpro) turn out when `CC[C@@H](C)[C@H](NC(=O)C1CC(F)(F)C1)C(=O)N1C[C@H]2[C@@H]([C@H]1C(=O)NN(C[C@@H]1CCNC1=O)C(=O)[C@H](F)Cl)C2(C)C` [Example 114, N-[(1S,2R)-1-[(1R,2S,5S)-2-[[[(2R)-2-chloro-2-fluoro-acetyl]-[[(3S)-2-oxopyrrolidin-3-yl]methyl]amino]carbamoyl]-6,6-dimethyl-3-azabicyclo[3.1.0]hexane-3-carbonyl]-2-methyl-butyl]-3,3-difluoro-cyclobutanecarboxamide] was run?
The IC50 was 17 nM.

What about the IC50 (HCoV-229E 3CLpro) of the same compound?
The IC50 was 29 nM.

What about the IC50 (MERS-CoV 3CLpro) of the same compound?
Its IC50 is 113 nM.

What about the IC50 (SARS-CoV 3CLpro) of the same compound?
The IC50 was 25 nM.
